Experimental data taken from a melting point compilation (Tetko et al.; mined from patent text by program, amines drawn as free bases though some values may be those of a salt).

| melting point [°C] | SMILES |
| --- | --- |
| 196 to 198 | CCOCc1cc(OC)c(-c2ccc(C[C@H](NC(=O)c3c(Cl)cccc3Cl)C(=O)O)cc2)c(OC)c1 |
| 117 | CCc1ccc(C#Cc2ccc(C=O)cc2)cc1 |
| 259 | C#CCOc1cccc(OC)c1-c1nc2cnncc2[nH]1 |
| 186 to 190 | Nc1nc(NCCc2ccc(Oc3nc(N)n4nc(-c5ccco5)nc4n3)cc2)nc2nc(-c3ccco3)nn12 |
| 269 to 272 | CCCc1cccn2c(=O)c(-c3nnn[nH]3)cnc12 |
| 110 to 113 | CCC(C)(N=NC(C)(CC)NC(=O)NC1CCCCC1)NC(=O)NC1CCCCC1 (configuration not stated) |
| 104 to 106 | O=C(N[C@H](Cc1cccc(OC(F)(F)C(F)F)c1)[C@@H](O)c1ccc(CN2CCCCC2)cc1)c1cccc2c1C=CCCC2 (racemic) |
| 171 | Fc1ccc(Cn2c(NC3CCN(CCNc4nnnn4-c4ccccc4)CC3)nc3ccccc32)cc1 |
| 60 to 61 | CNc1cccc(OC)c1N |
| 233 to 235 | COc1cc2nc(N)nc(-c3cccc(OC(F)(F)F)c3)c2cc1OC |
| 310 to 320 | Cc1nc2c([nH]c(=O)c3ccccc32)s1 |
| 171 to 172 | Cc1cccc2c1nc(-c1ccncc1)n2Cc1c(F)cccc1F |
| 136 to 138 | CCOC(=O)C=Cc1ccc(NC(=O)Oc2ccccc2)cc1 |
| 197 to 198 | O=c1c2[nH]c(C(C3CC3)C3CC3)nc2n(C2CC2)c(=O)n1C1CC1 |
| 106 to 108 | O=C(Cc1cccc(Cl)c1)c1ccn(S(=O)(=O)c2ccccc2)c1 |
| 82 | C=C(Cc1ccccc1)C(=O)NCC(=O)O |
| 246 to 248 | Cc1c(N2C[C@@H](NC(=O)C(F)(F)F)C3(CC3)C2)c(F)c(N)c2c(=O)c(C(=O)O)cn(C3CC3)c12 |
| 119 to 120 | Cc1oc(-c2ccccc2)nc1COc1ccc(COc2ncccc2C#N)cc1 |
| 95 to 96 | COc1cc(C(=O)NN)cc(OC)c1OCCCN(C)C |
| > 250 | O=C(O)Cn1c(=O)c(=O)[nH]c2ccc3ccc(-n4ccc(CN5CCc6ccccc6C5)c4)cc3c21 |
| 273 | COc1ccc(-c2c3c(nn2-c2ccccc2)-c2cccc(N)c2C3=O)cc1 |
| 111 to 116 | O=C(CC1CCCC1)Nc1ccc2cccc(OS(=O)(=O)C(F)(F)F)c2c1 |
| 149 to 150 | COc1ccc(-c2cc3cc(OC)cc(CC#N)c3o2)cc1 |

| melting point [°C] | SMILES |
| --- | --- |
| 138 to 139 | COC(=O)[C@@]1(c2ccc3ccccc3c2)CC1(c1ccccc1)c1ccccc1 |
| 101 to 102 | CS(=O)(=O)OCCNc1cc(Cl)ccc1[N+](=O)[O-] |
| 229 to 230 | CCOC(=O)C1=C(C=NO)Nc2nccn2C1c1cccc([N+](=O)[O-])c1 (configuration not stated) |
| 129 to 130 | COc1ccc(Br)cc1CN1CCC(=O)C(C(c2ccc(F)cc2)c2ccc(F)cc2)C1 (configuration not stated) |
| 93 to 94 | CC(C)(C)OC(=O)NCCCCCN(OCc1ccccc1)C(=O)CCC(=O)O |
| 179 to 180 | Cc1nn(-c2ccc(F)cc2)cc1C(=O)Nc1ccc(OCC(C)C)c(C#N)c1 |
| 129 to 131 | CCCn1nc(C)c(NC(C)=O)c1C#N |
| 190 to 192 | CCOC(=O)NN=Cc1nc(Cc2ccccc2)[nH]c1C |
| 134 | Brc1ccccc1C1=NOC2(N3CCCC3)CCCCC12 (configuration not stated) |
| 191 to 193 | COc1cncnc1N1CCN(CCCc2c[nH]c3ccc(Nc4cc(=O)c4=O)cc23)CC1C (configuration not stated) |
| 166 to 167 | FC(F)(F)Oc1cccc(COc2cccc(-c3nnc(Nc4ccc(Cl)c(Cl)c4)s3)c2)c1 |
| 62 to 64 | COc1ccc(-c2cc(CO)c(C)o2)cc1 |
| 241 to 242 | CN1C(=O)CCC2(C)c3ccc(Sc4cccc5cccnc45)cc3CCC12 (configuration not stated) |
| 123 to 124 | O=C1C2=C(CCCC2)C(=O)N1CCCCCCN1C(=O)C2=C(CCCC2)C1=O |
| 131 to 135 | O=C(CC(Cc1cccc2ccccc12)C(=O)O)NCCc1ccccc1 (configuration not stated) |
| 105 to 108 | O=CC(=Cc1ccc([N+](=O)[O-])s1)c1ccc(Br)cc1 |
| 212 to 214 | COc1nccc(-c2c(-c3ccc(F)cc3)ncn2C2CCC(=O)CC2)n1 |
| 153 to 154 | CCOC(=O)C(C)(NC(=O)Cc1ccc(O)c2ncccc12)C(=O)OCC |
| 227 to 229 | O=C(N[C@@H](Cc1ccc(Cl)cc1)C(=O)N1CCC(O)CC1)c1cc2cc(Cl)ccc2[nH]1 |
| 155 to 156 | Cn1c(Nc2cc(C(F)(F)F)ccc2C(F)(F)F)nc(C(F)(F)F)cc1=O |
| 213 to 215 | COc1ccc(-c2cnc(NS(=O)(=O)Cc3ccccc3)c(Cc3ccccc3)n2)cc1 |
| 200 to 203 | COc1ccc(NC(=O)c2cccnc2)c2c1oc1ccccc12 |
| 244 to 245 | NCC(C(=O)O)c1c[nH]c2ccc(F)cc12 (configuration not stated) |

| melting point [°C] | SMILES |
| --- | --- |
| 192 to 194 | Cc1ccc2c(NCc3ccc(NC(=O)c4ccc(Cl)cc4)cc3)nc(N3CCCCCC3)nc2c1 |
| 154 | CNc1ccc(-c2nc3ccc(F)cc3s2)cc1 |
| 76 to 77 | CC(=O)N1CCOc2c(C(=O)O)cc(Cl)cc21 |
| 134 to 135 | Cc1ccc(S(=O)(=O)NC(Cc2ccccc2)C(=O)O)cc1 (configuration not stated) |
| 212 to 215 | CC1CC(N)=NN1c1nc2ccccc2s1 (configuration not stated) |
| 129 to 131 | CCC(=O)NCC[C@@H]1CCc2cc(Br)c3c(c21)CCO3 |
| 153 to 155 | O=C(NCC1CCC1)NCC1CCC1 |
| 126 to 127 | CCOC(=O)c1cc2c3ccccc3n(Cc3ccccc3)c2cn1 |
| 46 | Cc1cc(C=O)c(OCCCCCCBr)c(C=O)c1 |
| 168 to 170 | CC(C)N(Cc1c(-c2ccccc2)sc(N2C(=O)c3ccccc3C2=O)c1C(=O)c1ccc(Cl)cc1)C(C)C |
| 173 to 175 | CCCN(C1CC(C)(C)Oc2ccc(O)cc21)S(=O)(=O)CC (configuration not stated) |
| 214 to 216 | Nc1nc(N)nc(-c2ccc(C(O)c3ccccc3)cc2)n1 (racemic) |
| 91.2 to 92.2 | COc1ccc(CNC=C(C(C)=O)C(C)=O)cc1 |
| 136 | COc1nc(C)nc(OC)c1C=S |
| 157 to 158 | CCOc1nn2c(-c3ccccc3Br)nnc2c2ccccc12 |
| 146 to 147 | O=C1CCCc2cc(OCc3cncnc3)ccc21 |
| 212 to 214 | Cc1[nH]c(=S)n(Nc2ccc(Cl)cc2)c1-c1ccccc1 |
| 183 to 184 | Cc1ncc(C#N)c(Nc2ccc3[nH]ccc3c2C)c1-c1ccc(OCCN2CCN(C)CC2)cc1 |
| 188 to 190 | O=C1COc2cc(F)c(N3C(=O)C4=C(CCCC4)C3=O)cc2N1Cc1ccccn1 |
| 172 to 174 | Cc1ncccc1Cn1nnnc1-c1cc(Cl)ccc1Cl |
| 125 to 126 | CC(C)CCS(=O)(=O)CC[C@H](O)[C@@H](N)CC(C)C |
| 137 to 139 | O=C(NCCCn1cncn1)Nc1ccc(Cl)cc1 |
| 148 | CC(C)(C)c1cc(C(=O)c2cccs2)cc(CN2CCOCC2)c1O |

| SMILES | melting point [°C] |
| --- | --- |
| COC(=O)[C@@H]1C[C@H](N)C(=O)[C@H]2[C@@]1(C)CC[C@H]1C(=O)O[C@H](c3ccoc3)C[C@]21C | 237 to 240 |
| Cc1nnc2n1-c1ccc(C#CCn3ccc4ccccc43)cc1C(c1ccccc1F)=NC2 | 167 to 169 |
| COCNC(=O)C1C(c2ccc(F)cc2)CC2CCC1N2C (configuration not stated) | 140 to 142 |
